The structures appear in SMILES notation. Converted amounts (≈) assume the structure as drawn. “Also recorded” adds a separate entry of the source. Where two headings read alike, the source gives them in different places.

Usually MIC stands for the smallest concentration in the dilution series that meets the test's criterion for growth inhibition.

Series [1] is described as follows: Solubility of the compounds. The series is classed as physicochemical.
Series [2] has as its system Candida albicans ATCC 10231(R) (strain A). Briefly: MIC determination, in vitro antifungal assay (CLSI M27-A3). Type of series: cell-based. The note with it: MIC-0 (no visible growth), 48 h at 35° C. The essentials: (§1)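 Yeast from a single colony is grown overnight in YPD at 35° C with shaking, adjusted to OD600 0.12, then diluted into RPMI 1640 to 2-4×10^3 CFU/mL. Compounds are tested by modified CLSI M27-A3 microdilution, DMSO <1.25%, and MIC is scored as complete inhibition.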

Series [3] relates to Candida parapsilosis ATCC 22019 (strain J). The series is described as above. Particulars: Lodderomyces parapsilosis, ATCC22019, 48 h, strain J; MIC-0; 48 h at 35° C.; read-out: MIC. Type of series: cell-based. The essentials:
as §1

The test system of series [4] is C. albicans ATCC MYA-1237(R) (strain F). Described as above. The note with it: Candida albicans, 48 h, MIC-0, 48 h at 35° C., read-out: MIC. Type of series: cell-based, Candida albicans. The essentials: as §1
Series [5] deals with C. albicans ATCC 90819(R) (strain D). Described as above. Type of series: cell-based, Candida albicans. The note with it: Candida albicans, ATCC90819, 48 h, MIC-0, 48 h at 35° C., read-out: MIC. The essentials: as §1
Series [6] has as its system C. albicans ATCC 64124(R) (strain B). The series is described as above. The series is classed as cell-based, Candida albicans. The note with it: strain B, MIC-0, 48 h at 35° C. The essentials: as §1
Series [7] concerns C. albicans ATCC MYA-2310(S) (strain E). Described as above. Type of series: cell-based, Candida albicans. Particulars: Candida albicans, 48 h, MIC-0, 48 h at 35° C., read-out: MIC. The essentials: as §1
Series [8] relates to various yeast strains and filamentous fungi (strains A-M). Briefly: Antifungal activity over the whole panel (summary of MIC data). The series is classed as cell-based, Candida and Aspergillus strains. The note with it: for antifungal activity (in words): over the fungal strains tested, based on MIC data of Table 1. On the procedure:
The activity of N,N′-diaryl-bishydrazones 7-22 was tested against a panel of seven strains of C. albicans: ATCC 10231(R) (A), ATCC 64124(R) (B), ATCC MYA-2876(S) (C), ATCC 90819(R) (D), ATCC MYA-2310(S) (E), ATCC MYA-1237(R) (F), and ATCC MYA-1003(R) (G). The activity of these bishydrazones 7-22 was also explored against a panel of three non-albicans Candida strains: C. glabrata ATCC 2001 (H), C. krusei ATCC 6258 (I), and C. parapsilosis ATCC 22019 (J). Finally, the activity of these bishydrazones 7-22 was explored against three Aspergillus strains: A. flavus ATCC MYA-3631 (K), A. nidulans ATCC 38163 (L), and A. terreus ATCC MYA-3633 (M).
The MIC values of compounds 7a-24c against yeast cells (strains A-J) were determined in 96-well plates as described in the CLSI document M27-A3 with minor modifications. A single colony of freshly prepared yeast cells was used to inoculate 5 mL of yeast extract peptone dextrose (YPD) broth prior to incubation overnight with shaking at 200 rpm at 35° C. From the actively growing yeast culture, 100 μL were then transferred to 900 μL of sterile ddH2O and re-adjusted to achieve OD600 of 0.12 (˜1×10^6 CFU/mL). The cell suspension was further diluted to achieve 2-4×10^3 CFU/mL in RPMI 1640 medium. […] The final concentration of DMSO was ensured to be <1.25% in all experiments. The MIC values for compounds 7a-24c and CAS were defined as the minimum drug concentration that yielded complete inhibition (also known as MIC-0).
Similarly, the MIC values of compounds 7a-24c, as well as that of the two control drugs against filamentous fungi (strains K-M) were determined as previously described in CLSI document M38-A2. Spores were harvested from sporulating cultures growing on potato dextrose agar (PDA) by filtration through sterile glass wool and enumerated by using a hemocytometer to obtain the desired inoculum size. […] Spore suspensions were added to the wells to afford a final concentration of 5×10^5 CFU/mL. The plates were incubated at 35° C. for 48 h. The MIC values of compounds 7a-24c and CAS against filamentous fungi were based on the complete inhibition of growth when compared to the growth control (MIC-0). […] Each test was performed in triplicate.

In series [9] the test system is C. albicans ATCC MYA-1003(R) (strain G). Briefly: MIC determination, in vitro antifungal assay (CLSI M27-A3). Type of series: cell-based, Candida albicans. Particulars: Candida albicans, 48 h, MIC-0, 48 h at 35° C., read-out: MIC. A digest of the protocol: (§2)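 Yeast inoculum (2-4×10^3 CFU/mL, from OD600 0.12 suspension of overnight YPD culture) tested in MOPS-buffered (0.165 M) RPMI 1640, pH 7.0, at 35 °C. Method follows CLSI M27-A3 broth microdilution, with DMSO kept below 1.25% final.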

Series [10] relates to C. albicans ATCC MYA-2876(S) (strain C). The series is described as above. Type of series: cell-based, Candida albicans. Particulars: Candida albicans, 48 h, MIC-0, 48 h at 35° C., read-out: MIC. The essentials:
as §2

The test system of series [11] is Aspergillus nidulans ATCC 38163 (strain L). Briefly: MIC determination against filamentous fungi (CLSI M38-A2). Type of series: cell-based. The note with it: Aspergillus nidulans, ATCC38163, 48 h, MIC-0, 48 h at 35° C., read-out: MIC. The essentials:
(§3)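 MIC-0, meaning no visible growth relative to growth control, was scored after 48 h at 35° C, in triplicate. Hemocytometer-counted spores from potato dextrose agar were inoculated at 5×10^5 CFU/mL final. The medium was MOPS-buffered (0.165 M) RPMI 1640 at pH 7.0, following CLSI M38-A2.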

Series [12] concerns Aspergillus terreus ATCC MYA-3633 (strain M). Described as above. The series is classed as cell-based. The note with it: Aspergillus terreus, 48 h, MIC-0, 48 h at 35° C., read-out: MIC. The essentials: as §3
Series [13] relates to Aspergillus flavus ATCC MYA-3631 (strain K). The description is as above. Type of series: cell-based. The note with it: Aspergillus flavus, 48 h, MIC-0, 48 h at 35° C., read-out: MIC. The essentials:
as §3

Series [14] deals with Candida krusei ATCC 6258 (strain I). Briefly: MIC determination, in vitro antifungal assay (CLSI M27-A3). Type of series: cell-based. The note with it: Pichia kudriavzevii, ATCC6258, 48 h, MIC-0, 48 h at 35° C., read-out: MIC. A digest of the protocol:
as §2

In series [15] the test system is Candida glabrata ATCC 2001 (strain H). The description is as above. The series is classed as cell-based. The note with it: Nakaseomyces glabratus, ATCC2001, 48 h, MIC-0, 48 h at 35° C., read-out: MIC. A digest of the protocol:
as §2

The mark [16] stands for this setting: Candida albicans, ATCC10231, 48 h, read-out: MIC.
Setting [17] is: Candida albicans, ATCC64124, 48 h, read-out: MIC.

For the compound `COc1ccccc1N/N=C/c1ccc(-c2cccc(/C=N/Nc3ccccc3OC)c2)cc1` [Compound 9a], the “solubility (in words)” value in series [1] is reported as “limited solubility; also recorded: insoluble”.
Take `O=[N+]([O-])c1ccccc1N/N=C/c1ccc(-c2cccc(/C=N/Nc3ccccc3[N+](=O)[O-])c2)cc1` [Compound 8a]: the “solubility (in words)” value in series [1] was “limited solubility; also recorded: insoluble”.
On the same count and under the same terms, with `COc1cccc(N/N=C/c2ccc(-c3cccc(/C=N/Nc4cccc(OC)c4)c3)cc2)c1` [Compound 11a] the entry was “limited solubility; also recorded: insoluble”.
For `CC(C)Oc1ccc(N/N=C/c2ccc(-c3ccc(/C=N/Nc4ccc(OC(C)C)cc4)cc3)cc2)cc1` [Compound 16b], the MIC in series [2] (setting [16]), in series [3], in series [4], in series [5], in series [6] (setting [17]) and in series [7] was over 31.3 µg/mL each time. Further, the MIC in series [9], in [10], in series [11], in series [12], in series [13] and in series [14] was over 31.3 µg/mL in each case. Further, the MIC in [15] is over 31.3 µg/mL. The “antifungal activity (in words)” value in series [8] was “inactive”.
For `O=[N+]([O-])c1ccccc1N/N=C/c1ccc(-c2ccc(/C=N/Nc3ccccc3[N+](=O)[O-])cc2)cc1` [Compound 8b], the “solubility (in words)” value in [1] was “limited solubility; also recorded: insoluble”.
For the compound `Fc1ccc(N/N=C/c2ccc(-c3ccc(/C=N/Nc4ccc(F)cc4F)cc3)cc2)c(F)c1` [Compound 20b], the MIC in series [2] (setting [16]) is 7.8 µg/mL (≈ 16.9 µM); in series [2], 7.8 µg/mL (≈ 16.9 µM); in series [3], over 31.3 µg/mL; in series [4], over 31.3 µg/mL; in [5], 31.3 µg/mL (≈ 67.7 µM); in [6] (setting [17]), over 31.3 µg/mL. The MIC in series [7] was over 31.3 µg/mL; in series [8] (against all fungal strains tested, with named exceptions, read-out: antifungal activity class based on MIC values), at least 31.3 µg/mL; in [9], over 31.3 µg/mL; in series [10], over 31.3 µg/mL; in [11], over 31.3 µg/mL; in series [12] it was over 31.3 µg/mL. Besides, the MIC in [13], in series [14] and in series [15] was over 31.3 µg/mL throughout.
For `N#Cc1ccc(N/N=C/c2ccc(-c3ccc(/C=N/Nc4ccc(C#N)cc4)cc3)cc2)cc1` [Compound 13b], the MIC in [2] (setting [16]), in series [3], in series [4], in series [5], in series [6] (setting [17]) and in [7] was over 31.3 µg/mL throughout. Also, the MIC in series [9] was 31.3 µg/mL (≈ 71.1 µM); in series [10], over 31.3 µg/mL; in series [11], over 31.3 µg/mL; in [12], 31.3 µg/mL (≈ 71.1 µM); in series [13] it was over 31.3 µg/mL; in [14] it was over 31.3 µg/mL. Also, in [15], the MIC is over 31.3 µg/mL. In addition, the “antifungal activity (in words)” value in series [8] is “inactive”.
`Brc1ccc(N/N=C/c2ccc(-c3ccc(/C=N/Nc4ccc(Br)cc4)cc3)cc2)cc1` [Compound 19b]: the MIC in series [2] (setting [16]) is over 31.3 µg/mL; in series [3], 31.3 µg/mL (≈ 57.1 µM); in [4], over 31.3 µg/mL; in series [5], over 31.3 µg/mL; in [6] (setting [17]) it was over 31.3 µg/mL; in series [7], over 31.3 µg/mL. The MIC in [9], in series [10], in [11], in series [12], in series [13] and in series [14] was over 31.3 µg/mL each time. Also, in series [15], the MIC is over 31.3 µg/mL. Also, in [8], the “antifungal activity (in words)” value is “inactive”.
For `COc1cccc(N/N=C/c2ccc(-c3ccc(/C=N/Nc4cccc(OC)c4)cc3)cc2)c1` [Compound 11b], the “solubility (in words)” value in [1] is “limited solubility; also recorded: insoluble”.
For the compound `FC(F)(F)c1ccc(N/N=C/c2ccc(-c3cccc(/C=N/Nc4ccc(C(F)(F)F)cc4)c3)cc2)cc1` [Compound 14a], the “solubility (in words)” value in series [1] is recorded as “limited solubility; also recorded: insoluble”.
Regarding `COc1ccccc1N/N=C/c1ccc(-c2ccc(/C=N/Nc3ccccc3OC)cc2)cc1` [Compound 9b], the “solubility (in words)” value in series [1] is listed as “limited solubility; also recorded: insoluble”.
As to `Fc1cc(F)cc(N/N=C/c2ccc(-c3cccc(/C=N/Nc4cc(F)cc(F)c4)c3)cc2)c1` [Compound 22a], the MIC in [2] (setting [16]) is 3.9 µg/mL (≈ 8.43 µM); in series [2] it was 3.9 µg/mL (≈ 8.43 µM); in [3], over 31.3 µg/mL; in [4], 31.3 µg/mL (≈ 67.7 µM); in [5], over 31.3 µg/mL; in series [6] (setting [17]) it was 15.6 µg/mL (≈ 33.7 µM). In addition, the MIC in [6] was 15.6 µg/mL (≈ 33.7 µM); in [7], over 31.3 µg/mL; in [9], 31.3 µg/mL (≈ 67.7 µM); in series [10], 31.3 µg/mL (≈ 67.7 µM); in series [11], over 31.3 µg/mL; in series [12], over 31.3 µg/mL. Besides, the MIC in series [13], in series [14] and in series [15] was over 31.3 µg/mL in each case. Also, in [8], the “antifungal activity (in words)” value is listed as “no activity”.

Values taken from patent US11851391B2, “Antifungal compounds and methods of forming the same” (University of Kentucky Research Foundation, priority 2018, dated 2023).
